Each block holds one compound with its values, some of them ahead of it. Active and inactive are the calls of the source. The calls are words filed in the database; no cut-off is given here.
Key:
MCF7 = experiment: Antiproliferative activity against human MCF7 cells assessed as inhibition of cell growth measured after 72 hrs by MTT assay; format: functional, cell-based; conditions: MCF7, 72 h
MDA-MB-231 [1] = experiment: Antiproliferative activity against human MDA-MB-231 cells assessed as inhibition of cell growth measured after 72 hrs by MTT assay; format: functional, cell-based; conditions: MDA-MB-231, 72 h
MDA-MB-231 [2] = experiment: Antiproliferative activity against human drug tolerant MDA-MB-231/lapatinib cells assessed as inhibition of cell growth in measured after 72 hrs by MTT assay; format: functional, cell-based; conditions: MDA-MB-231, 72 h
HUVEC = experiment: Antiproliferative activity against human HUVEC cells assessed as inhibition of cell growth in measured after 72 hrs by MTT assay; format: cell-based
[3] = Resistant factor, ratio of IC50 for antiproliferative activity against drug-tolerant human MDA-MB-231 cells to IC50 for human MDA-MB-231 cells; format: functional
[4] = target: T1, Aldehyde dehydrogenase 1A1 (Homo sapiens, UniProt P00352); experiment: Inhibition of ALDH1A1 in human drug-tolerant MDA-MB-231/lapatinib cells assessed as after 24 hrs
T1 sequence (P00352 whole entry): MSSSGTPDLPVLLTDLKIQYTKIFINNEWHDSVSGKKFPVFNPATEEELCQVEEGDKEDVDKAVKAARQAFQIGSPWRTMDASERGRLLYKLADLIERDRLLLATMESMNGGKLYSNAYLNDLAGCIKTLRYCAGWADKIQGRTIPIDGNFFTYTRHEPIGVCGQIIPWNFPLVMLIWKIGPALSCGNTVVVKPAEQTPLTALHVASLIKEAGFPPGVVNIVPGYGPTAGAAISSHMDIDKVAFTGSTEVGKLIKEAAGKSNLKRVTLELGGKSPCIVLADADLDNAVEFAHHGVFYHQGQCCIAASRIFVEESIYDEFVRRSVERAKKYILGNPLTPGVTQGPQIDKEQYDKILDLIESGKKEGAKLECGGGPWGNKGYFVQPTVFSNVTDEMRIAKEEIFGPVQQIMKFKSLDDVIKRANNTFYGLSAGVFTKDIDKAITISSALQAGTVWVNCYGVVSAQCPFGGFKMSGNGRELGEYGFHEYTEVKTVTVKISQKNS

MDA-MB-231 [5] = experiment: Inhibition of cell stemness in human drug-tolerant MDA-MB-231/lapatinib cells assessed as inhibition of CD44+/CD24- expression at 20 uM after 24 hrs by flow cytometry analysis; format: functional
[6] = Octanol/water partition coefficient, log P of the compound by shake flask method based thermodynamic solubility assay; format: physicochemical
MDA-MB-231 [7] = experiment: Induction of apoptosis in drug-tolerant human MDA-MB-231 cells/lapatinib cells assessed as apoptotic rate at 20 uM measured after 24 hrs by flow cytometry; format: functional
MDA-MB-231 [8] = experiment: Induction apoptosis in MDA-MB-231/ lapatinib cells assessed as apoptotic cells at 20 uM measured after 24 hrs by propidium iodide staining based flow cytometric analysis; format: functional, cell-based; conditions: Homo sapiens
MDA-MB-231 [9] = experiment: Cell cycle arrest in human MDA-MB-231 cells assessed as accumulation at G2-M phase at 20 uM incubated for 24 hrs by PI staining based flow cytometry; format: functional
MDA-MB-231 [10] = experiment: Cell cycle arrest in human drug-tolerant MDA-MB-231/lapatinib cells assessed as accumulation at G2-M phase at 20 uM incubated for 24 hrs by PI staining based flow cytometry; format: functional
MDA-MB-231 [11] = experiment: Cell cycle arrest in human MDA-MB-231 cells assessed as increase in accumulation at S phase at 20 uM incubated for 24 hrs by PI staining based flow cytometry; format: functional
MDA-MB-231 [12] = experiment: Cell cycle arrest in human drug-tolerant MDA-MB-231/lapatinib cells assessed as increase in accumulation at S phase at 20 uM incubated for 24 hrs […]; format: functional, cell-based
[13] = target: T2, Epidermal growth factor receptor (Homo sapiens, UniProt P00533); experiment: Inhibition of exogenous EGFR (unknown origin)
T2 sequence (P00533 whole entry): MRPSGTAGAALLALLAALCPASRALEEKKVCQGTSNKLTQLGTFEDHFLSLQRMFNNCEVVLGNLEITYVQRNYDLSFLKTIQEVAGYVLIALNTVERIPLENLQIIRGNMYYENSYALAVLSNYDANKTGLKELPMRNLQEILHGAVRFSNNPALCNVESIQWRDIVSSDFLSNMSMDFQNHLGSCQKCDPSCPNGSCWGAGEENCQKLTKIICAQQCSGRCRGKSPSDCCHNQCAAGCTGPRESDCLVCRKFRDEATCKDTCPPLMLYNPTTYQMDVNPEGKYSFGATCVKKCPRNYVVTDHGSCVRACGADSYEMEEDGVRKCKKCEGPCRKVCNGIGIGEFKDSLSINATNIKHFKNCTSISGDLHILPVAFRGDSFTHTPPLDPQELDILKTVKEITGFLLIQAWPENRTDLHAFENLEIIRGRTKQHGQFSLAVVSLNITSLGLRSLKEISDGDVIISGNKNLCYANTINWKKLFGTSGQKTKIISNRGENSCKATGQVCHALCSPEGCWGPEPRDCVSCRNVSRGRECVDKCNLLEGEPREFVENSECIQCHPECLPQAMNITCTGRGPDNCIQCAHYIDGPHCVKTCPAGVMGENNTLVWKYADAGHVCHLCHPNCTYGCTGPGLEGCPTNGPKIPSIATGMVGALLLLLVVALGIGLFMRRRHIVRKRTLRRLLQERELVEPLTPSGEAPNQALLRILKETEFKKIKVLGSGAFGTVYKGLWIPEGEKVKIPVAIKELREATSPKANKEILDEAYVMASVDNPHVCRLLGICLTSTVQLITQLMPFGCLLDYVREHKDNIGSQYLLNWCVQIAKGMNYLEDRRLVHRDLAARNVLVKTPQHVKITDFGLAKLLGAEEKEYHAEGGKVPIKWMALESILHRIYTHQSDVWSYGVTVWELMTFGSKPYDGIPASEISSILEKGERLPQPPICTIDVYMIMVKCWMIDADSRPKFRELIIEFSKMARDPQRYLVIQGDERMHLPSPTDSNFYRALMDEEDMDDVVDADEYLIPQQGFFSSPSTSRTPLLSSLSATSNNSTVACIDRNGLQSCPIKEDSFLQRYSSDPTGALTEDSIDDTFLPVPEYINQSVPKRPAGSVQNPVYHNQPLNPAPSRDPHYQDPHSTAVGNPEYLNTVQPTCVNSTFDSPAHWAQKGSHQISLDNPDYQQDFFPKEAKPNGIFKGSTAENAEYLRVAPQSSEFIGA

[14] = target: T2, Epidermal growth factor receptor; experiment: Inhibition of human EGFR in human MDA-MB-231 cells assessed as inhibition of phosphorylation ERK1/2 at T202/Y204 of measured after 24 hrs by Western blot analysis; format: cell-based; conditions: dose 5-20 µM
[15] = target: T2, Epidermal growth factor receptor; experiment: Inhibition of human EGFR in human MDA-MB-231 cells assessed as inhibition of phosphorylation Akt1/2/3 at Ser473 of measured after 24 hrs by Western blot analysis; format: cell-based; conditions: dose 5-20 µM
MDA-MB-231 [16] = experiment: Inhibition of colony formation in human drug-tolerant MDA-MB-231/lapatinib cells at 5 uM measured after 24 hrs; format: functional
MDA-MB-231 [17] = experiment: Inhibition of cell invasion in human MDA-MB-231/lapatinib cells at 20 uM; format: functional
MDA-MB-231 [18] = experiment: Potency index, ratio of lapatinib IC50 to test compound IC50 for induction of apoptosis in drug-tolerant human MDA-MB-231 cells/lapatinib cells assessed as apoptotic rate at 20 uM measured after 24 hrs by flow cytometry; format: functional
[19] = target: T2, Epidermal growth factor receptor; experiment: Inhibition of human EGFR phosphorylation in human drug-tolerant MDA-MB-231/lapatinib cells measured after 24 hrs by Western blot analysis; conditions: dose 5-20 µM
[20] = target: T2, Epidermal growth factor receptor; experiment: Inhibition of human EGFR phosphorylation in human MDA-MB-231 cells measured after 24 hrs by Western blot analysis; format: cell-based; conditions: dose 5-20 µM
[21] = target: T2, Epidermal growth factor receptor; experiment: Inhibition of human EGFR in human drug-tolerant MDA-MB-231/lapatinib cells assessed as inhibition of phosphorylation Akt1/2/3 at Ser473 of measured after 24 hrs by Western blot analysis; conditions: dose 5-20 µM
[22] = target: T2, Epidermal growth factor receptor; experiment: Inhibition of human EGFR in human drug-tolerant MDA-MB-231/lapatinib cells assessed as inhibition of phosphorylation ERK1/2 at T202/Y204 of measured after 24 hrs by Western blot analysis; conditions: dose 5-20 µM
MDA-MB-231 [23] = experiment: Inhibition of cell stemness in drug-tolerant human MDA-MB-231/lapatinib cells assessed as inhibition of Notch expression at 20 uM after 24 hrs by flow cytometry; format: functional, cell-based
MDA-MB-231 [24] = experiment: Inhibition of cell stemness in drug-tolerant human MDA-MB-231/lapatinib cells assessed as inhibition of Jagged expression at 20 uM after 24 hrs by flow cytometry; format: functional, cell-based
MDA-MB-231 [25] = experiment: Antiproliferative activity against drug-tolerant human MDA-MB-231/lapatinib cells assessed as CD44-positive cells measured after 24 hrs by MTT assay; format: functional, cell-based; conditions: MDA-MB-231, 24 h
MDA-MB-231 [26] = experiment: Antiproliferative activity against drug-tolerant human MDA-MB-231/lapatinib cells assessed as CD44+/CD24- cells measured at 20 uM after 24 hrs by MTT assay; format: functional
MDA-MB-231 [27] = experiment: Inhibition of cell stemness in human drug-tolerant MDA-MB-231/lapatinib cells assessed as inhibition of OCT4 expression at 20 uM after 24 hrs by qRT-PCR analysis; format: functional, cell-based
MDA-MB-231 [28] = experiment: Inhibition of cell stemness in human drug-tolerant MDA-MB-231/lapatinib cells assessed as inhibition of SOX-2 expression at 20 uM after 24 hrs by qRT-PCR analysis; format: functional, cell-based
MDA-MB-231 [29] = experiment: Inhibition of cell stemness in human drug-tolerant MDA-MB-231/lapatinib cells assessed as inhibition of Kif4 expression at 20 uM after 24 hrs by qRT-PCR analysis; format: functional, cell-based
MDA-MB-231 [30] = experiment: Inhibition of cell migration in human drug-tolerant MDA-MB-231/lapatinib cells at 20 uM; format: functional
MDA-MB-231 [31] = experiment: Inhibition of Wnt/beta-Catenin signaling in drug-tolerant human MDA-MB-231/lapatinib cells assessed as reduction in beta-catenin level at 20 uM incubated for 24 hrs by Western blot analysis
MDA-MB-231 [32] = experiment: Inhibition of Wnt/beta-Catenin signaling in drug-tolerant human MDA-MB-231/lapatinib cells assessed as reduction in p-GSK3beta level at 20 uM incubated for 24 hrs by Western blot analysis
MDA-MB-231 [33] = experiment: Inhibition of Wnt/beta-Catenin signaling in drug-tolerant human MDA-MB-231/lapatinib cells assessed as reduction in c-Myc mRNA level at 20 uM incubated for 24 hrs by qRT-PCR analysis
MDA-MB-231 [34] = experiment: Inhibition of Wnt/beta-Catenin signaling in drug-tolerant human MDA-MB-231/lapatinib cells assessed as reduction in cyclin D1 mRNA level at 20 uM incubated for 24 hrs by qRT-PCR analysis
MDA-MB-231 [35] = experiment: Inhibition of Wnt/beta-Catenin signaling in drug-tolerant human MDA-MB-231/lapatinib cells assessed as reduction in MMP7 mRNA level at 20 uM incubated for 24 hrs by qRT-PCR analysis; format: tissue-based
MDA-MB-231 [36] = experiment: Inhibition of Wnt/beta-Catenin signaling in drug-tolerant human MDA-MB-231/lapatinib cells assessed as reduction in S100A4 mRNA level at 20 uM incubated for 24 hrs by qRT-PCR analysis
MDA-MB-231 [37] = experiment: Inhibition of Wnt/beta-Catenin signaling in drug-tolerant human MDA-MB-231/lapatinib cells assessed as increase in nuclear expression of p-beta-catenin level at 20 uM incubated for 24 hrs by Western blot analysis
MDA-MB-231 [38] = experiment: Antitumor activity against drug-tolerant human MDA-MB-231/lapatinib cells injected in BALB/c mouse assessed as tumor development measured after 8 weeks; format: functional, cell-based

Compound: OCCN1CCN(CCCN2c3ccccc3Sc3ccc(Cl)cc32)CC1 [PERPHENAZINE]
- IC50 (MCF7): 35.8 µM
- IC50 (MDA-MB-231 [1]): 30.4 µM
- IC50 (MDA-MB-231 [2]): 31.8 µM
- IC50 (HUVEC): 97.8 µM
- Ratio IC50 [3]: 1.05
- IC50 [4]: 0.524 µM

Compound: OCCN1CCN(CCCN2c3ccccc3Sc3ccc(C(F)(F)F)cc32)CC1 [FLUPHENAZINE]
- IC50 (MCF7): 24.6 µM
- IC50 (MDA-MB-231 [1]): 16.7 µM
- IC50 (MDA-MB-231 [2]): 18.6 µM
- IC50 (HUVEC): 38 µM
- Ratio IC50 [3]: 0.86

Compounds with a lower IC50 (MCF7), results first:

- IC50 (MCF7): 7.38 µM
- IC50 (MDA-MB-231 [1]): 4.51 µM
Compound: CS(=O)(=O)CCN(Cc1ccc(-c2ccc3ncnc(Nc4ccc(OCc5cccc(F)c5)c(Cl)c4)c3c2)o1)C(=O)CCCC(=O)OCCN1CCN(CCCN2c3ccccc3Sc3ccc(Cl)cc32)CC1
- IC50 (MDA-MB-231 [2]): 5.74 µM
- IC50 (HUVEC): 100 µM
- Ratio IC50 [3]: 1.27

- IC50 (MCF7): 3.62 µM
- IC50 (MDA-MB-231 [1]): 1.54 µM
- logP [6]: 2.49
- IC50 [13]: 0.0105 µM
- inhibition [14]: Active
- inhibition [15]: Active
- inhibition [20]: Dose-Dependent Effect
Compound: CS(=O)(=O)CCN(Cc1ccc(-c2ccc3ncnc(Nc4ccc(OCc5cccc(F)c5)c(Cl)c4)c3c2)o1)C(=O)CCC(=O)OCCN1CCN(CCCN2c3ccccc3Sc3ccc(Cl)cc32)CC1
- IC50 (MDA-MB-231 [2]): 1.03 µM
- IC50 (HUVEC): 89.2 µM
- inhibition at 20 µM (MDA-MB-231 [5]): 0.56%
- Ratio IC50 [3]: 0.67
- Activity (MDA-MB-231 [7]): 72%
- Activity (MDA-MB-231 [8]): Active
- Activity (MDA-MB-231 [9]): Active
- Activity (MDA-MB-231 [10]): Active
- Activity (MDA-MB-231 [11]): Active
- Activity (MDA-MB-231 [12]): Active
- IC50 [4]: 0.0864 µM
- inhibition at 5 µM (MDA-MB-231 [16]): 10.9%
- inhibition at 20 µM (MDA-MB-231 [17]): 56.3%
- Ratio IC50 (MDA-MB-231 [18]): 2.23
- inhibition [19]: Dose-Dependent Effect
- inhibition [21]: Dose-Dependent Effect
- inhibition [22]: Dose-Dependent Effect
- inhibition (MDA-MB-231 [23]): Active
- inhibition (MDA-MB-231 [24]): Active
- IC50 (MDA-MB-231 [25]): 0.56 µM
- inhibition at 20 µM (MDA-MB-231 [26]): 72.9%
- inhibition (MDA-MB-231 [27]): Active
- inhibition (MDA-MB-231 [28]): Active
- inhibition (MDA-MB-231 [29]): Active
- inhibition at 20 µM (MDA-MB-231 [30]): 13.2%
- inhibition (MDA-MB-231 [31]): Active
- inhibition (MDA-MB-231 [32]): Active
- inhibition (MDA-MB-231 [33]): Active
- inhibition (MDA-MB-231 [34]): Active
- inhibition (MDA-MB-231 [35]): Active
- inhibition (MDA-MB-231 [36]): Active
- inhibition (MDA-MB-231 [37]): Active
- Activity (MDA-MB-231 [38]): Active

- IC50 (MCF7): 9.16 µM
- IC50 (MDA-MB-231 [1]): 6.58 µM
Compound: CS(=O)(=O)CCN(Cc1ccc(-c2ccc3ncnc(Nc4ccc(OCc5cccc(F)c5)c(Cl)c4)c3c2)o1)C(=O)CCCC(=O)OCCN1CCN(CCCN2c3ccccc3Sc3ccc(C(F)(F)F)cc32)CC1
- IC50 (MDA-MB-231 [2]): 7.12 µM
- IC50 (HUVEC): 43.4 µM
- Ratio IC50 [3]: 1.08

Source: ChEMBL document CHEMBL5030535, “Conjugates Derived from Lapatinib Derivatives with Cancer Cell Stemness Inhibitors Effectively Reversed Drug Resistance in Triple-Negative Breast Cancer” (J Med Chem, 2021)
